Assay results from patent publication US20210122763A1, “OGA INHIBITOR COMPOUNDS” (Janssen Pharmaceutica NV, priority 2018, published 2021).

Molecular target: T1, OGA (Homo sapiens, UniProt O60502)
T1 construct: HEK293 cells inducible for P301L mutant human Tau (isoform 2N4R) were established at Janssen; endogenous in cells; host or cells: HEK293 cells inducible for P301L mutant human Tau (2N4R)
T1 sequence (O60502 1-916): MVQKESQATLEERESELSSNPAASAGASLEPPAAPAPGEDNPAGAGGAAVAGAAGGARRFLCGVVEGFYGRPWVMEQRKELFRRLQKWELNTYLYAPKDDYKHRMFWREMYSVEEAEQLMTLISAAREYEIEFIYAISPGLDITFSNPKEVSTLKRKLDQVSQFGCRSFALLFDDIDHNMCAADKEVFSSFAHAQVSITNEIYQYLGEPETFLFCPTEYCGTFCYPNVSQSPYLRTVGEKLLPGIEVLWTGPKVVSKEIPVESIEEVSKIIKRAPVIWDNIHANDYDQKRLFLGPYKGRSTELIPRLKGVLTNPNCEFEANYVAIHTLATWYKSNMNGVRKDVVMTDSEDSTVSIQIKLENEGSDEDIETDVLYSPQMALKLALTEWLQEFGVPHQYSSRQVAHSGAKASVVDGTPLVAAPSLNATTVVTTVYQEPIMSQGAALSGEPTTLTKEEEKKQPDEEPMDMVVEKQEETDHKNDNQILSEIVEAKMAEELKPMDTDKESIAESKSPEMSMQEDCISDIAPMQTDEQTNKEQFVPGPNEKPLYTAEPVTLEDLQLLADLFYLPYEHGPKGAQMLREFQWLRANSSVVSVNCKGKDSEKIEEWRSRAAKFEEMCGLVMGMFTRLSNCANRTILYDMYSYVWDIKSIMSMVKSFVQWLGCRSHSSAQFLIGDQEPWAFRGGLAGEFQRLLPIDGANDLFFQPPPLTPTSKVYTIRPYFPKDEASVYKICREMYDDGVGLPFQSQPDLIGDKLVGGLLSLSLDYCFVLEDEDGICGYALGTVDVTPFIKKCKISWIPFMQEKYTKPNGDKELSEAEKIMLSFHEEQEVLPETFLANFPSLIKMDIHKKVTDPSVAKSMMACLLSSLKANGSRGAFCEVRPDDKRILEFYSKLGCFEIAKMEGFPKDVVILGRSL
Assay: OGA cellular assay (ICC detection of O-GlcNAcylated proteins in HEK293 cells inducible for P301L mutant human Tau)
Assay type: cell-based
Conditions: 6 hours incubation; for Emax: HEK293, HEK293 cells inducible for P301L mutant human Tau, maximum = Thiamet G 200 uM; for EC50: HEK293 cells inducible for P301L mutant human Tau, read-out: Cellular hOGA, pEC50 (converted)
Outline: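 HEK293 cells with inducible P301L 2N4R Tau, seeded in low-glucose medium, were exposed to compounds for 6 hours (0.2% DMSO), then PFA-fixed and stained with CTD110.6. Imaging intensity at 488 nm measured O-GlcNAcylation, with Hoechst nuclei counts for toxicity. IC50s came from non-linear regression, with Thiamet G at 200 uM as maximum inhibition.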

Emax [%]	EC50 [nM]	Compound
86	31.6	Cc1cc(OC2CCN([C@@H](C)c3nc4nc(C)sc4cc3F)CC2)cc(C)n1 (single isomer, unassigned) [Compound 83]
81	10	Cc1cc(OC2CCN([C@H](C)c3nc4c(cc3F)CCO4)CC2)cc(C)n1 (single isomer, unassigned) [Compound 144]
82	50.1	Cc1cc(OC2CCN([C@H](C)c3nc4c(cc3F)OCCO4)CC2)cc(C)n1 (single isomer, unassigned) [Compound 148]
92	39.8	Cc1ncc(OC2CCN(C(C)c3nc4c(cc3F)CCO4)CC2)cn1 (centres unmarked) [Compound 95]
